Assay results: patent US7423157B2, “Substituted benzimidazoles and their use for inducing apoptosis” (Basilea Pharmaceutica AG, priority 2004, dated 2008)
pIC50: −log10 of the molar value.

Key:
HeLa [1] = experiment: MTS proliferation assay, HeLa; type: cell-based, human; conditions: 72 h incubation
Protocol: (§1) The assay is performed in 96 well tissue culture plates. The cells (range: 1.5*10^3-10^4) are seeded out in 80 μl complete medium 24 h prior to compound treatment. The test compounds are added in 20 μl complete medium containing max 5% DMSO. The final compound concentrations in the assays are 10 μM, 3 μM, 1 μM and 0.3 μM, respectively. The assay plates are incubated for 72 h at culture conditions. The MTS reagent is prepared according to the manufacturer's protocol (Promega G1111). 20 μl MTS reagent are added to each well, the assay plates are quickly spun and incubated for another 3 h at culture conditions. Subsequently, the plates are shortly shaked and absorption measured with a microplate-reader at 492 nm.

MRC5 = experiment: Hoechst 33342 nuclear staining, MRC5; type: cell-based; set-up: key: 0 = no activity, 1 = weak (<50% of cells), 2 = strong (>50% of cells); conditions: MRC5, 48 h
Protocol: (§2) This assay is performed in 96 well tissue culture plates. Appropriate number of cells (adherent cells: 3-5*10^3, suspension cells: 8-10*10^3) are being seeded out in 80 μl complete medium. Adherent cells are incubated for 24 h for proper spreading out before addition of test compounds while suspension cells are immediately treated with test compounds after seeding out. The test compounds are added in 20 μl complete medium containing max 5% DMSO. The final compound concentrations in the assays are 10 μM, 3 μM, 1 μM and 0.3 μM, respectively. […] The assay plates are then further incubated for 30 minutes and subsequently analyzed with a standard inverted fluorescence microscope.
(§3) The readout allows the determination of the fraction of apoptotic nuclei as well as other morphological criteria specific for apoptosis as a function of the treatment. The following scores are used: 0 relating to no activity, 1 relating to weak activity comprising less than 50% of the cells and score 2 relating to strong activity comprising more than 50% of the cells.

H460 = experiment: Hoechst 33342 nuclear staining, H460; type: cell-based, human; conditions: H460, 48 h
Protocol: as §2, §3

Jily = experiment: Hoechst 33342 nuclear staining, Jily; type: cell-based; conditions: 48 h
Protocol: as §2, §3

HeLa [2] = experiment: Hoechst 33342 nuclear staining, HeLa; type: cell-based, human; conditions: 48 h
Protocol: as §2, §3

Jurkat [3] = experiment: MTS proliferation assay, Jurkat; type: cell-based, human; conditions: 72 h incubation
Protocol: as §1

PBLs = experiment: Hoechst 33342 nuclear staining, PBLs; type: cell-based; set-up: key: 0 = no activity, 1 = weak (<50% of cells), 2 = strong (>50% of cells); conditions: 48 h
Protocol: as §2, §3

Jurkat [4] = experiment: Hoechst 33342 nuclear staining, Jurkat; type: cell-based, human; conditions: 48 h
Protocol: as §2, §3

Row | Compound | Hoechst 33342 nuclear staining score (MRC5; conc. 0.3 (μM)) | Hoechst 33342 nuclear staining score (MRC5; conc. 1 (μM)) | Hoechst 33342 nuclear staining score (MRC5; conc. 3 (μM)) | Hoechst 33342 nuclear staining score (MRC5; conc. 10 (μM)) | Hoechst 33342 nuclear staining score (H460; conc. 0.3 (μM)) | Hoechst 33342 nuclear staining score (H460; conc. 1 (μM)) | Hoechst 33342 nuclear staining score (H460; conc. 3 (μM)) | Hoechst 33342 nuclear staining score (H460; conc. 10 (μM)) | Hoechst 33342 nuclear staining score (Jily; conc. 0.3 (μM)) | Hoechst 33342 nuclear staining score (Jily; conc. 1 (μM)) | Hoechst 33342 nuclear staining score (Jily; conc. 3 (μM)) | Hoechst 33342 nuclear staining score (Jily; conc. 10 (μM)) | Hoechst 33342 nuclear staining score (HeLa [2]; conc. 0.3 (μM)) | Hoechst 33342 nuclear staining score (HeLa [2]; conc. 1 (μM)) | Hoechst 33342 nuclear staining score (HeLa [2]; conc. 3 (μM)) | Hoechst 33342 nuclear staining score (HeLa [2]; conc. 10 (μM)) | Hoechst 33342 nuclear staining score (PBLs; conc. 0.3 (μM)) | Hoechst 33342 nuclear staining score (PBLs; conc. 1 (μM)) | Hoechst 33342 nuclear staining score (PBLs; conc. 3 (μM)) | Hoechst 33342 nuclear staining score (PBLs; conc. 10 (μM)) | further results
1 | Cc1ccc(C(=O)Cn2c(-n3ncnc3N)nc3ccccc32)cc1C [Example 1, 3-Amino-2-(1-[3,4-dimethylphenylcarbonylmethyl]benzimidazol-2-yl)-1,2,4-triazole] | 1 (1 relating to weak activity comprising less than 50% of the cells) | 2 (score 2 relating to strong activity comprising more than 50% of the cells) | 2 (score 2 relating to strong activity comprising more than 50% of the cells) | 2 (score 2 relating to strong activity comprising more than 50% of the cells) | 2 (score 2 relating to strong activity comprising more than 50% of the cells) | 2 (score 2 relating to strong activity comprising more than 50% of the cells) | 2 (score 2 relating to strong activity comprising more than 50% of the cells) | 2 (score 2 relating to strong activity comprising more than 50% of the cells) | 2 (score 2 relating to strong activity comprising more than 50% of the cells) | 2 (score 2 relating to strong activity comprising more than 50% of the cells) | 2 (score 2 relating to strong activity comprising more than 50% of the cells) | 2 (score 2 relating to strong activity comprising more than 50% of the cells) | 2 (score 2 relating to strong activity comprising more than 50% of the cells) | 2 (score 2 relating to strong activity comprising more than 50% of the cells) | 2 (score 2 relating to strong activity comprising more than 50% of the cells) | 2 (score 2 relating to strong activity comprising more than 50% of the cells) | 0 | 0 | 0 | 0 | pIC50 (HeLa [1]; Homo sapiens): > 7.00; pIC50 (Jurkat [3]; Homo sapiens): > 7.00; Hoechst 33342 nuclear staining score (Jurkat [4]; conc. 0.3 (μM)): 2 (score 2 relating to strong activity comprising more than 50% of the cells); Hoechst 33342 nuclear staining score (Jurkat [4]; conc. 1 (μM)): 2 (score 2 relating to strong activity comprising more than 50% of the cells); Hoechst 33342 nuclear staining score (Jurkat [4]; conc. 3 (μM)): 2 (score 2 relating to strong activity comprising more than 50% of the cells); Hoechst 33342 nuclear staining score (Jurkat [4]; conc. 10 (μM)): 2 (score 2 relating to strong activity comprising more than 50% of the cells)
2 | COc1cccc(/C=C/C(=O)Cn2c(-n3ncnc3N)nc3ccccc32)c1 [Example 9] | 0 | 0 | 0 | 0 | 0 | 0 | 0 | 2 (score 2 relating to strong activity comprising more than 50% of the cells) | 0 | 0 | 0 | 2 (score 2 relating to strong activity comprising more than 50% of the cells) | 0 | 0 | 0 | 2 (score 2 relating to strong activity comprising more than 50% of the cells) | 0 | 0 | 0 | 2 (score 2 relating to strong activity comprising more than 50% of the cells) | pIC50 (HeLa [1]): < 6.00; pIC50 (Jurkat [3]): < 6.00; Hoechst 33342 nuclear staining score (Jurkat [4]; conc. 0.3 (μM)): 0; Hoechst 33342 nuclear staining score (Jurkat [4]; conc. 1 (μM)): 0; Hoechst 33342 nuclear staining score (Jurkat [4]; conc. 3 (μM)): 0; Hoechst 33342 nuclear staining score (Jurkat [4]; conc. 10 (μM)): 2 (score 2 relating to strong activity comprising more than 50% of the cells)
